Measurements from US20240239788A1, “SMALL MOLECULE INHIBITORS OF KRAS G12D MUTANT” (Merck Sharp & Dohme LLC, priority 2021, published 2024).
Counter-ions that a name gives are not always drawn. Like-named read-outs stand apart in the source and are kept apart here.

What was measured:
[1] = system: AsPC-1 cells containing homozygous KRAS-G12D activating mutation; test: Cellular phospho-ERK assay with 10% FBS (Examples 107a-256); assay type: cell-based
Method: 5% CO2 for 2 hours. […] Assay plates were read on a EnVision Multimode Plate Reader (PerkinElmer) and the ratio of p-Erk vs total Erk in each well was used as the final readout.

[2] = target: KRAS protein containing G12D mutation (Homo sapiens (Human), UniProt P01116, G12D); test: SOS-catalyzed nucleotide exchange assay (GNE), TR-FRET; assay type: biochemical; conditions: biotinylated KRAS G12D, SOS and GTP, 60-minute incubation
Method: Compounds are added to this complex and then after a 60-minute incubation time the mixture is treated with SOS and unlabeled GTP. Small molecule inhibitors stabilize the Bodipy-GDP complex whereas the untreated protein rapidly exchanges Bodipy-GDP for unlabeled GTP resulting in reduced TR-FRET signal.
This solution is referred to as biotinylated KRAS G12D stock solution.

[3] = Homo sapiens, ASPC1, 2 h, read-out: IC50 (nM) pERK (cell with FBS 10%), AsPC-1 cells, 10% fetal bovine serum, 2 hours, ratio of p-Erk vs total Erk
[4] = read-out: IC50 (nM) pERK (cell with FBS 10%), AsPC-1 cells, 10% fetal bovine serum, 2 hours, ratio of p-Erk vs total Erk
[5] = read-out: IC50 (nM) pERK (cell with FBS 10%), AsPC-1 cells, 10% fetal bovine serum, 2 hours, ratio of p-Erk vs total Erk, TFA

Chain of KRAS protein containing G12D mutation (P01116 other isoform, or with tags, fused parts or gaps G12D (already in the parent)): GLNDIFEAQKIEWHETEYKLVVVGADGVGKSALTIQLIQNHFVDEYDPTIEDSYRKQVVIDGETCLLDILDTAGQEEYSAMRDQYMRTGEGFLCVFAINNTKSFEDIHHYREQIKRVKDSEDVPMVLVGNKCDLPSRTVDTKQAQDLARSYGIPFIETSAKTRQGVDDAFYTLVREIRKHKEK

SMILES | IC50 [1, 3] [nM] | IC50 [2] [nM] | IC50 [1, 4] [nM] | IC50 ([1]; Homo sapiens, ASPC1, 2 h, read-out: IC50 (nM) pERK (cell with FBS 10%)) [nM] | IC50 [1, 5] [nM]
C#Cc1c(F)ccc2cccc(-c3c(F)cc4c(N5C[C@H]6CC[C@@](C)(C5)N6)nc(OC[C@@]56CCCN5[C@H](CF)CC6)nc4c3F)c12 (single isomer, unassigned) [Ex. 149] | 4490 | 103 |  |  | 
Cc1nc(N)c(F)c(-c2c(F)cc3c(N4CC5CCC(C4)N5)nc(OC[C@@]45CCCN4C[C@H](F)C5)nc3c2F)c1C(F)(F)F (single isomer, unassigned) [Ex. 151a] |  | 1930 | 3950 |  | 
Cc1nc(N)c(F)c(-c2c(F)cc3c(N4CC5CCC(C4)N5)nc(OC[C@@]45CCCN4C[C@H](F)C5)nc3c2F)c1C(F)(F)F (single isomer, unassigned) [Ex. 151b] |  | 21.6 | 278 |  | 
Nc1cc(Cl)c(C(F)(F)F)c(-c2c(Cl)cc3c(N4CC5CCC(C4)N5)nc(OC[C@@]45CCCN4C[C@H](F)C5)nc3c2F)n1 (single isomer, unassigned) [Ex. 154a] | 52.1 | 1.1 |  |  | 
Nc1cc(-c2c(Cl)cc3c(N4CC5CCC(C4)N5)nc(OC[C@@]45CCCN4C[C@H](F)C5)nc3c2F)c(C(F)(F)F)c(Cl)n1 (single isomer, unassigned) [Ex. 155b] | 144 | 2.33 |  |  | 
Oc1cc(-c2c(F)cc3c(N4CC5CCC(C4)N5)nc(OC[C@@]45CCCN4C[C@H](F)C5)nc3c2F)c2c(Cl)cccc2c1 (single isomer, unassigned) [Ex. 160a] |  | 3.3 | 882 |  | 
Oc1cc(-c2c(F)cc3c(N4CC5CCC(C4)N5)nc(OC[C@@]45CCCN4C[C@H](F)C5)nc3c2F)c2c(Cl)cccc2c1 (single isomer, unassigned) [Ex. 160b] |  | 367 | 12500 |  | 
CCC(=O)Oc1cc(-c2c(F)cc3c(N4CC5CC[C@@](C)(C4)N5)nc(OC[C@@]45CCCN4C[C@H](F)C5)nc3c2F)c2c(Cl)cccc2c1 (single isomer, unassigned) [Ex. 162a] |  | 23.1 | 659 |  | 
CCC(=O)Oc1cc(-c2c(F)cc3c(N4CC5CC[C@@](C)(C4)N5)nc(OC[C@@]45CCCN4C[C@H](F)C5)nc3c2F)c2c(Cl)cccc2c1 (single isomer, unassigned) [Ex. 162b] |  | 495 | 2390 |  | 
C[C@]12CC[C@H](CN(c3nc(OC[C@@]45CCCN4C[C@H](F)C5)nc4c(F)c(-c5cc(N)c(F)c6cccc(Cl)c56)c(F)cc34)C1)N2 (single isomer, unassigned) [Ex. 163a] |  | 47.5 | 2270 |  | 
C[C@]12CC[C@H](CN(c3nc(OC[C@@]45CCCN4C[C@H](F)C5)nc4c(F)c(-c5cc(N)c(F)c6cccc(Cl)c56)c(F)cc34)C1)N2 (single isomer, unassigned) [Ex. 163b] |  | 4740 | 35600 |  | 
Cc1c(C(F)(F)F)c(-c2c(F)cc3c(N4CC5CCC(C4)N5)nc(OC[C@@]45CCCN4C[C@H](F)C5)nc3c2F)c2cn[nH]c2c1F (single isomer, unassigned) [Ex. 166a] |  | 944 | 30000 |  | 
Cc1c(C(F)(F)F)c(-c2c(F)cc3c(N4CC5CCC(C4)N5)nc(OC[C@@]45CCCN4C[C@H](F)C5)nc3c2F)c2cn[nH]c2c1F (single isomer, unassigned) [Ex. 166b] |  | 4.4 | 152 |  | 
C[C@]12CC[C@H](CN(c3nc(OC[C@@]45CCCN4C[C@H](F)C5)nc4c(F)c(-c5cncc6cccc(Cl)c56)c(F)cc34)C1)N2 (single isomer, unassigned) [Ex. 167] | 8440 | 414 |  |  | 
C#Cc1cccc2cc(O)cc(-c3c(F)cc4c(N5CC6CC[C@@](C)(C5)N6)nc(OCC5(CN6CC[C@@H](F)C6)CC5)nc4c3F)c12 (single isomer, unassigned) [Ex. 169] |  | 0.7 |  | 73 | 
C[C@]12CC[C@H](CN(c3nc(OC[C@@]45CCCN4C[C@H](F)C5)nc4c(F)c(-c5c(F)cc(F)c6oc(N)nc56)c(Cl)cc34)C1)N2 (single isomer, unassigned) [Ex. 170a] |  | 4.72 | 1380 |  | 
C[C@]12CC[C@H](CN(c3nc(OC[C@@]45CCCN4C[C@H](F)C5)nc4c(F)c(-c5c(F)cc(F)c6oc(N)nc56)c(Cl)cc34)C1)N2 (single isomer, unassigned) [Ex. 170b] |  | 874 | 14900 |  | 
C#Cc1cccc2cc(O)cc(-c3c(F)cc4c(N5C[C@H]6CC[C@@](C)(C5)N6)nc(OC)nc4c3F)c12 (single isomer, unassigned) [Ex. 171a, TFA] | 7720 | 1260 |  |  | 
C[C@]12CCC(CN(c3nc(OCC45CCCN4CC(C(F)F)C5)nc4c(F)c(-c5cc(O)cc6cccc(Cl)c56)c(F)cc34)C1)N2 (single isomer, unassigned) [Ex. 173-1a] |  | 8.43 | 1570 |  | 

SMILES | IC50 [1, 3] [nM] | IC50 [2] [nM] | IC50 [1, 4] [nM] | IC50 ([1]; Homo sapiens, ASPC1, 2 h, read-out: IC50 (nM) pERK (cell with FBS 10%)) [nM] | IC50 [1, 5] [nM]
C[C@]12CCC(CN(c3nc(OCC45CCCN4CC(C(F)F)C5)nc4c(F)c(-c5cc(O)cc6cccc(Cl)c56)c(F)cc34)C1)N2 (single isomer, unassigned) [Ex. 173-1b] |  | 22.1 | 2890 |  | 
C[C@]12CCC(CN(c3nc(OCC45CCCN4CC(C(F)F)C5)nc4c(F)c(-c5cc(O)cc6cccc(Cl)c56)c(F)cc34)C1)N2 (single isomer, unassigned) [Ex. 173-2a] |  | 266 | 10200 |  | 
C[C@]12CCC(CN(c3nc(OC[C@@H]4CC[C@H]5CC(F)(F)CCN45)nc4c(F)c(-c5cc(O)cc6cccc(Cl)c56)c(F)cc34)C1)N2 (single isomer, unassigned) [Ex. 175a] | 6450 | 738 |  |  | 
C[C@@]12CC[C@H](CN(c3nc(OC[C@@]45CCCN4C[C@H](F)C5)nc4c(F)c(-c5cc(O)cc6ccc(F)c(Cl)c56)c(F)cc34)C1)N2 (single isomer, unassigned) [Ex. 176a] | 400 | 1.91 |  |  | 
C[C@@]12CC[C@H](CN(c3nc(OC[C@@]45CCCN4C[C@H](F)C5)nc4c(F)c(-c5cc(O)cc6ccc(F)c(Cl)c56)c(F)cc34)C1)N2 (single isomer, unassigned) [Ex. 176b] | 4360 | 110 |  |  | 
C#Cc1c(F)ccc2cc(O)cc(-c3c(F)cc4c(N5CC6CC[C@@](C)(C5)N6)nc(OC[C@@]56CCCN5C[C@H](F)C6)nc4c3F)c12 (single isomer, unassigned) [Ex. 177a] |  | 0.8 | 12.7 |  | 
C#Cc1c(F)ccc2cc(O)cc(-c3c(F)cc4c(N5CC6CC[C@@](C)(C5)N6)nc(OC[C@@]56CCCN5C[C@H](F)C6)nc4c3F)c12 (single isomer, unassigned) [Ex. 177b] |  | 51.7 | 588 |  | 
CCc1cccc2cc(O)cc(-c3c(F)cc4c(N5CC6CC[C@@](C)(C5)N6)nc(OC[C@@]56CCCN5C[C@H](F)C6)nc4c3F)c12 (single isomer, unassigned) [Ex. 178a] |  | 1.73 | 108 |  | 
CCc1cccc2cc(O)cc(-c3c(F)cc4c(N5CC6CC[C@@](C)(C5)N6)nc(OC[C@@]56CCCN5C[C@H](F)C6)nc4c3F)c12 (single isomer, unassigned) [Ex. 178b] |  | 210 | 4580 |  | 
C[C@]12CCC(CN(c3nc(OC[C@@]45CCCN4C[C@H](F)C5)nc4c(F)c(-c5cc(O)cc6cc(F)cc(Cl)c56)c(F)cc34)C1)N2 (single isomer, unassigned) [Ex. 180a] |  | 6.48 | 1040 |  | 
C[C@]12CCC(CN(c3nc(OC[C@@]45CCCN4C[C@H](F)C5)nc4c(F)c(-c5cc(O)cc6cc(F)cc(Cl)c56)c(F)cc34)C1)N2 (single isomer, unassigned) [Ex. 180b] |  | 744 | 14200 |  | 
C[C@]12CCC(CN(c3nc(OC[C@@]45CCCN4C[C@H](F)C5)nc4c(F)c(-c5cc(O)cc(Cl)c5C(F)(F)F)c(F)cc34)C1)N2 (single isomer, unassigned) [Ex. 183a] |  | 347 | 6070 |  | 
C[C@]12CCC(CN(c3nc(OC[C@@]45CCCN4C[C@H](F)C5)nc4c(F)c(-c5cc(O)cc(Cl)c5C(F)(F)F)c(F)cc34)C1)N2 (single isomer, unassigned) [Ex. 183b] |  | 3.95 | 190 |  | 
C[C@@]12CC[C@H](CN(c3nc(OC[C@@]45CCCN4C[C@H](F)C5)nc4c(F)c(-c5cc(O)cc6cccc(F)c56)c(F)cc34)C1)N2 (single isomer, unassigned) [Ex. 186a] |  | 1.49 | 180 |  | 
C[C@@]12CC[C@H](CN(c3nc(OC[C@@]45CCCN4C[C@H](F)C5)nc4c(F)c(-c5cc(O)cc6cccc(F)c56)c(F)cc34)C1)N2 (single isomer, unassigned) [Ex. 186b] |  | 185 | 3780 |  | 
Nc1cc2cccc(Cl)c2c(-c2c(F)cc3c(N4CC5CCC(C4)N5)nc(OC[C@@]45CCCN4C[C@H](F)C5)nc3c2F)n1 (single isomer, unassigned) [Ex. 189a] | 672 | 12.8 |  |  | 
C#Cc1cccc2cccc(-c3c(F)cc4c(N5CC6(C)CCC(C)(C5)N6)nc(OC[C@@]56CCCN5C[C@H](F)C6)nc4c3F)c12 (single isomer, unassigned) [Ex. 190a, TFA] |  | 2510 |  |  | 30000
C#Cc1cccc2cccc(-c3c(F)cc4c(N5CC6(C)CCC(C)(C5)N6)nc(OC[C@@]56CCCN5C[C@H](F)C6)nc4c3F)c12 (single isomer, unassigned) [Ex. 190b, TFA] |  | 72 |  |  | 5830
Cc1nc(N)c(C)c(-c2c(F)cc3c(N4CC5CCC(C4)N5)nc(OC[C@@]45CCCN4C[C@H](F)C5)nc3c2F)c1C(F)(F)F (single isomer, unassigned) [Ex. 191a] |  | 26.5 | 288 |  | 
